# Results: BigSolDB 2.1
structure (smiles),measurement,setting,value
Nc1nc(Cl)c2[nH]cnc2n1,solubility (mole fraction),"in 1,4-dioxane, 288.15 K",7.48e-05
same,solubility (mole fraction),"in 1,4-dioxane, 293.15 K",9.16e-05
same,solubility (mole fraction),"in 1,4-dioxane, 298.15 K",0.000112
same,solubility (mole fraction),"in 1,4-dioxane, 303.15 K",0.000135
same,solubility (mole fraction),"in 1,4-dioxane, 308.15 K",0.000162
same,solubility (mole fraction),"in 1,4-dioxane, 313.15 K",0.000195
same,solubility (mole fraction),"in 1,4-dioxane, 318.15 K",0.000236
same,solubility (mole fraction),"in 1,4-dioxane, 323.15 K",0.000277
same,solubility (mole fraction),"in 1,4-dioxane, 328.15 K",0.000325
same,solubility (mole fraction),"in 1,4-dioxane, 333.15 K",0.000396
same,solubility (mole fraction),"in 2-butanone, 278.15 K",0.000178
same,solubility (mole fraction),"in 2-butanone, 283.15 K",0.000214
same,solubility (mole fraction),"in 2-butanone, 288.15 K",0.000256
same,solubility (mole fraction),"in 2-butanone, 293.15 K",0.000303
same,solubility (mole fraction),"in 2-butanone, 298.15 K",0.000352
same,solubility (mole fraction),"in 2-butanone, 303.15 K",0.000408
same,solubility (mole fraction),"in 2-butanone, 308.15 K",0.000476
same,solubility (mole fraction),"in 2-butanone, 313.15 K",0.000547
same,solubility (mole fraction),"in 2-butanone, 318.15 K",0.000626
same,solubility (mole fraction),"in 2-butanone, 323.15 K",0.000723
same,solubility (mole fraction),"in 2-butanone, 328.15 K",0.00084
same,solubility (mole fraction),"in 2-butanone, 333.15 K",0.001
same,solubility (mole fraction),"in DMF, 278.15 K",0.00226
same,solubility (mole fraction),"in DMF, 283.15 K",0.00266
same,solubility (mole fraction),"in DMF, 288.15 K",0.00313
same,solubility (mole fraction),"in DMF, 293.15 K",0.00366
same,solubility (mole fraction),"in DMF, 298.15 K",0.00427
same,solubility (mole fraction),"in DMF, 303.15 K",0.00497
same,solubility (mole fraction),"in DMF, 308.15 K",0.00577
same,solubility (mole fraction),"in DMF, 313.15 K",0.00668
same,solubility (mole fraction),"in DMF, 318.15 K",0.00771
same,solubility (mole fraction),"in DMF, 323.15 K",0.00888
same,solubility (mole fraction),"in DMF, 328.15 K",0.01
same,solubility (mole fraction),"in DMF, 333.15 K",0.0121
same,solubility (mole fraction),"in DMSO, 298.15 K",0.0108
same,solubility (mole fraction),"in DMSO, 303.15 K",0.0127
same,solubility (mole fraction),"in DMSO, 308.15 K",0.015
same,solubility (mole fraction),"in DMSO, 313.15 K",0.0172
same,solubility (mole fraction),"in DMSO, 318.15 K",0.0204
same,solubility (mole fraction),"in DMSO, 323.15 K",0.024
same,solubility (mole fraction),"in DMSO, 328.15 K",0.0284
same,solubility (mole fraction),"in DMSO, 333.15 K",0.0331
same,solubility (mole fraction),"in ethanol, 278.15 K",4.39e-05
same,solubility (mole fraction),"in ethanol, 283.15 K",5.42e-05
same,solubility (mole fraction),"in ethanol, 288.15 K",6.87e-05
same,solubility (mole fraction),"in ethanol, 293.15 K",8.56e-05
same,solubility (mole fraction),"in ethanol, 298.15 K",0.000105
same,solubility (mole fraction),"in ethanol, 303.15 K",0.000125
same,solubility (mole fraction),"in ethanol, 308.15 K",0.000153
same,solubility (mole fraction),"in ethanol, 313.15 K",0.000184
same,solubility (mole fraction),"in ethanol, 318.15 K",0.000218
same,solubility (mole fraction),"in ethanol, 323.15 K",0.000258
same,solubility (mole fraction),"in ethanol, 328.15 K",0.000303
same,solubility (mole fraction),"in ethanol, 333.15 K",0.000357
same,solubility (mole fraction),"in ethylene glycol, 278.15 K",0.000549
same,solubility (mole fraction),"in ethylene glycol, 283.15 K",0.000634
same,solubility (mole fraction),"in ethylene glycol, 288.15 K",0.000719
same,solubility (mole fraction),"in ethylene glycol, 293.15 K",0.000823
same,solubility (mole fraction),"in ethylene glycol, 298.15 K",0.000923
same,solubility (mole fraction),"in ethylene glycol, 303.15 K",0.00104
same,solubility (mole fraction),"in ethylene glycol, 308.15 K",0.00117
same,solubility (mole fraction),"in ethylene glycol, 313.15 K",0.0013
same,solubility (mole fraction),"in ethylene glycol, 318.15 K",0.00145
same,solubility (mole fraction),"in ethylene glycol, 323.15 K",0.0016
same,solubility (mole fraction),"in ethylene glycol, 328.15 K",0.00177
same,solubility (mole fraction),"in ethylene glycol, 333.15 K",0.00198
same,solubility (mole fraction),"in isobutanol, 278.15 K",8.8e-05
same,solubility (mole fraction),"in isobutanol, 283.15 K",0.000106
same,solubility (mole fraction),"in isobutanol, 288.15 K",0.000131
same,solubility (mole fraction),"in isobutanol, 293.15 K",0.000155
same,solubility (mole fraction),"in isobutanol, 298.15 K",0.00018
same,solubility (mole fraction),"in isobutanol, 303.15 K",0.000211
same,solubility (mole fraction),"in isobutanol, 308.15 K",0.000244
same,solubility (mole fraction),"in isobutanol, 313.15 K",0.00028
same,solubility (mole fraction),"in isobutanol, 318.15 K",0.000325
same,solubility (mole fraction),"in isobutanol, 323.15 K",0.000373
same,solubility (mole fraction),"in isobutanol, 328.15 K",0.000433
same,solubility (mole fraction),"in isobutanol, 333.15 K",0.000499
same,solubility (mole fraction),"in isopropanol, 278.15 K",5.99e-05
same,solubility (mole fraction),"in isopropanol, 283.15 K",7.43e-05
same,solubility (mole fraction),"in isopropanol, 288.15 K",9.38e-05
same,solubility (mole fraction),"in isopropanol, 293.15 K",0.000114
same,solubility (mole fraction),"in isopropanol, 298.15 K",0.000137
same,solubility (mole fraction),"in isopropanol, 303.15 K",0.000165
same,solubility (mole fraction),"in isopropanol, 308.15 K",0.000195
same,solubility (mole fraction),"in isopropanol, 313.15 K",0.00023
same,solubility (mole fraction),"in isopropanol, 318.15 K",0.000266
same,solubility (mole fraction),"in isopropanol, 323.15 K",0.000314
same,solubility (mole fraction),"in isopropanol, 328.15 K",0.000363
same,solubility (mole fraction),"in isopropanol, 333.15 K",0.000431
same,solubility (mole fraction),"in methanol, 278.15 K",3.09e-05
same,solubility (mole fraction),"in methanol, 283.15 K",3.96e-05
same,solubility (mole fraction),"in methanol, 288.15 K",4.94e-05
same,solubility (mole fraction),"in methanol, 293.15 K",6.14e-05
same,solubility (mole fraction),"in methanol, 298.15 K",7.53e-05
same,solubility (mole fraction),"in methanol, 303.15 K",9.43e-05
same,solubility (mole fraction),"in methanol, 308.15 K",0.000112
same,solubility (mole fraction),"in methanol, 313.15 K",0.000137
same,solubility (mole fraction),"in methanol, 318.15 K",0.000168
same,solubility (mole fraction),"in methanol, 323.15 K",0.000198
same,solubility (mole fraction),"in methanol, 328.15 K",0.000233
same,solubility (mole fraction),"in methanol, 333.15 K",0.000279
same,solubility (mole fraction),"in n-butanol, 278.15 K",0.000135
same,solubility (mole fraction),"in n-butanol, 283.15 K",0.000159
same,solubility (mole fraction),"in n-butanol, 288.15 K",0.000185
same,solubility (mole fraction),"in n-butanol, 293.15 K",0.00021
same,solubility (mole fraction),"in n-butanol, 298.15 K",0.000242
same,solubility (mole fraction),"in n-butanol, 303.15 K",0.000276
same,solubility (mole fraction),"in n-butanol, 308.15 K",0.000316
same,solubility (mole fraction),"in n-butanol, 313.15 K",0.000358
same,solubility (mole fraction),"in n-butanol, 318.15 K",0.000409
same,solubility (mole fraction),"in n-butanol, 323.15 K",0.000461
same,solubility (mole fraction),"in n-butanol, 328.15 K",0.000515
same,solubility (mole fraction),"in n-butanol, 333.15 K",0.000586
same,solubility (mole fraction),"in n-propanol, 278.15 K",0.000103
same,solubility (mole fraction),"in n-propanol, 283.15 K",0.000122
same,solubility (mole fraction),"in n-propanol, 288.15 K",0.000149
same,solubility (mole fraction),"in n-propanol, 293.15 K",0.000174
same,solubility (mole fraction),"in n-propanol, 298.15 K",0.000202
same,solubility (mole fraction),"in n-propanol, 303.15 K",0.000234
same,solubility (mole fraction),"in n-propanol, 308.15 K",0.000274
same,solubility (mole fraction),"in n-propanol, 313.15 K",0.000314
same,solubility (mole fraction),"in n-propanol, 318.15 K",0.000362
same,solubility (mole fraction),"in n-propanol, 323.15 K",0.00042
same,solubility (mole fraction),"in n-propanol, 328.15 K",0.000472
same,solubility (mole fraction),"in n-propanol, 333.15 K",0.000539
same,solubility (mole fraction),"in water, 278.15 K",3.28e-06
same,solubility (mole fraction),"in water, 283.15 K",4.66e-06
same,solubility (mole fraction),"in water, 288.15 K",6.53e-06
same,solubility (mole fraction),"in water, 293.15 K",9.04e-06
same,solubility (mole fraction),"in water, 298.15 K",1.24e-05
same,solubility (mole fraction),"in water, 303.15 K",1.68e-05
same,solubility (mole fraction),"in water, 308.15 K",2.26e-05
same,solubility (mole fraction),"in water, 313.15 K",3e-05
same,solubility (mole fraction),"in water, 318.15 K",3.96e-05
same,solubility (mole fraction),"in water, 323.15 K",5.17e-05
same,solubility (mole fraction),"in water, 328.15 K",6.7e-05
same,solubility (mole fraction),"in water, 333.15 K",8.62e-05
